Source: patent US20030032791A1, “Novel melanocortin-4 receptor sequences and screening assays to identify compounds useful in regulating animal appetite and metabolic rate” (priority 2000, published 2003)
Like-named read-outs stand apart in the source and are kept apart here. Marks after values point to notes of the source that are not given here. Residues, ends and D or L forms follow the SMILES beside them.

Columns and labels:
canine MC4R (canine) [1] = test: cell-based or functional assay
hMC3R [2] = molecular target: T1, hMC3R (Homo sapiens, UniProt P41968)
Target sequence in this assay (P41968 whole entry): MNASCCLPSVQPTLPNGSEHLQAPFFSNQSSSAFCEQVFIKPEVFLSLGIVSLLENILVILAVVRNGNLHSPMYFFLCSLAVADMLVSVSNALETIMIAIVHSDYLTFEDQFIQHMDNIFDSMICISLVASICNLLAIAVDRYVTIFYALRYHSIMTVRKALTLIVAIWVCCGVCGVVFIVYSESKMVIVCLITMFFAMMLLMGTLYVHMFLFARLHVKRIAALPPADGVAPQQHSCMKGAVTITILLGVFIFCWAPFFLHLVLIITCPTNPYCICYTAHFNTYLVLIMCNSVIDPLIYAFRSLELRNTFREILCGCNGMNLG

hMC4R [3] = molecular target: T2, hMC4R (Homo sapiens, UniProt P32245)
Target sequence in this assay (P32245 whole entry): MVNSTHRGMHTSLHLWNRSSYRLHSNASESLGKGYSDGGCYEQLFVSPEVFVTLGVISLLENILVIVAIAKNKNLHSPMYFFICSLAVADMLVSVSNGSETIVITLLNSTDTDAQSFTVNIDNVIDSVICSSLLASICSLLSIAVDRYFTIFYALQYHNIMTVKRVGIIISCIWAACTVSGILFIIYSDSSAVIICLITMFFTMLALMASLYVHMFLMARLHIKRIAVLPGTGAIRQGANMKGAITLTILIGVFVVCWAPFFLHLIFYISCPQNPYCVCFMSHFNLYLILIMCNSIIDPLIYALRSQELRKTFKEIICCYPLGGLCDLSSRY

canine MC4R (canine) [4] = molecular target: canine MC4R (canine)
cMC4R [5] = test: FLIPR calcium release assay in HEK293a/cMC4R/Gα15, Gα16 cells; settings: read-out: EC50, agonist stimulated calcium release; HEK293a/cMC4R/Gα15, Gα16, Fluo-4
Obese Beagle Dogs [6] = test: Indirect calorimetry following ICV injection in lateral ventricle cannulated dogs; type: in vivo, dog; settings: NDP-MSH 75 mol
Text: (§1) Healthy, (1-3 years of age) male and female beagles (Marshall Farms, North Rose N.Y.) weighing 11-15 kg were employed as test subjects. The animals were surgically implanted with lateral ventricle cannulas using standard techniques. Wilsson-Rahmberg et al., 1998, J. Investigative Surgery, 11:207-214. Cannula placement and patency were confirmed with fluoroscopy. The dogs were housed individually in standard caging meeting or exceeding the USDA regulations (U.S. Department of Agriculture, Animal Welfare, Final Rules. 9 C.F.R. Parts 1-3,1995).
Each subject received a single 50 μl injection in one lateral ventricle (ICV injection) of one of 3 solutions: 30-100 nmol of the non-specific melanocortin (MC) receptor agonist [N1 e^4, D-Phe^7]-α-MSH (hereinafter “NDP-MSH,” Bachem Bioscience Inc., King of Prussia Pa.), 1-2 nmol of the MC3/4 receptor antagonist SHU-9119 (Bachem Bioscience Inc., King of Prussia, Pa.) or vehicle which consisted of artificial cerebrospinal fluid (hereinafter “aCSF,” Harvard Apparatus, Holliston, Mass.). NDP-MSH and SHU-9119 were received as a dry powder and were reconstituted with aCSF to achieve an appropriate concentration for a ^50 μl injection. Following ICV injection, resulting effects on food intake or metabolic rate were determined.
The studies consisted of one group of animals containing five dogs. In study 1, dogs received either NDP-MSH or aCSF on day 0 in a cross-over design with two dogs receiving NDP-MSH first and three dogs receiving aCSF first. Resulting effects on food intake were determined. In study 2, dogs received either SHU-9119 or aCSF on day 0 in a cross-over design with two dogs receiving SHU-9119 first and three dogs receiving aCSF first. Resulting effects on food intake were determined. In study 3, dogs received either NDP-MSH or aCSF on day 0 in a cross-over design with three dogs receiving NDP-MSH first and two dogs receiving aCSF first. Resulting effects on metabolic rate were determined. In study 4, dogs received either SHU-9119 or aCSF on day 0 in a cross-over design with three dogs receiving SHU-9119 first and two dogs receiving aCSF first. Resulting effects on metabolic rate were determined. Each test animal was permitted ad libitum access to water and IAMS […]® (The IAMS Company, Dayton Ohio) dry food each day during the study unless otherwise noted.
Reduction or increase in metabolic rate was measured by standard indirect calorimetry using an open circuit calorimeter (OXYMAX DELUXE@, Columbus Instruments, Columbus Ohio). Dogs were fasted for approximately 18 hours prior to ICV injection. Calorimetry sessions were initiated approximately 2 hours after ICV injection and lasted for 60-90 minutes.

Obese Beagle Dogs [7] = test: 24 hr food intake following ICV injection in lateral ventricle cannulated dogs; type: in vivo, dog; settings: NDP-MSH 100 nmol
Text: as §1
Each subject received a single 50 μl injection in one lateral ventricle (ICV injection) of one of 3 solutions: 30-100 nmol of the non-specific melanocortin (MC) receptor agonist [N1 e^4, D-Phe^7]-α-MSH (hereinafter “NDP-MSH,” Bachem Bioscience Inc., King of Prussia Pa.), 1-2 nmol of the MC3/4 receptor antagonist SHU-9119 (Bachem Bioscience Inc., King of Prussia, Pa.) or vehicle which consisted of artificial cerebrospinal fluid (hereinafter “aCSF,” Harvard Apparatus, Holliston, Mass.). […] Following ICV injection, resulting effects on food intake or metabolic rate were determined.
The studies consisted of one group of animals containing five dogs. […] Resulting effects on food intake were determined. […] Resulting effects on food intake were determined. […] Resulting effects on metabolic rate were determined. […] Resulting effects on metabolic rate were determined. […]

cMC4R [8] = test: cMC4R
hMC4R [9] = molecular target: T2, hMC4R; test: hMC4R; parameters: expressed in transfected cells; host or cells: HEK293
Target sequence in this assay (P32245 whole entry, looked up): as the sequence (P32245 whole entry) above

hMC3R [10] = molecular target: T1, hMC3R; test: hMC3R; parameters: expressed in transfected cells; host or cells: HEK293
Target sequence in this assay (P41968 whole entry, looked up): as the sequence (P41968 whole entry) above

hMC4R [11] = molecular target: T2, hMC4R; remark: listed apart in the source
Target sequence in this assay (P32245 whole entry): as the sequence (P32245 whole entry) above

hMC3R [12] = molecular target: T1, hMC3R; remark: listed apart in the source
Target sequence in this assay (P41968 whole entry): as the sequence (P41968 whole entry) above

canine MC4R = canine MC4R (Canis lupus familiaris, UniProt A0A2Z6BEC9); settings: 1 pM α-MSH
canine MC4R, sequence (A0A2Z6BEC9 1-332): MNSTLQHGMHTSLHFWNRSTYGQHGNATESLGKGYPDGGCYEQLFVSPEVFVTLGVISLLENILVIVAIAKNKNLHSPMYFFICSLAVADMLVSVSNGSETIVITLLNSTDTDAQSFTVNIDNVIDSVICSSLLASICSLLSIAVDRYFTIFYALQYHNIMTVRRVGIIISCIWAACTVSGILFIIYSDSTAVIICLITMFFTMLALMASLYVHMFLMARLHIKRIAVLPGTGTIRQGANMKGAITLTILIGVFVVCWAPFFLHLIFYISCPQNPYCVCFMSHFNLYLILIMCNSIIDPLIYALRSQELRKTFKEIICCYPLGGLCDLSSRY

[13] = ICV injection, SHU 9119 2 nmol, about 2 hours after injection, fasted dogs
[14] = versus aCSF control, SHU 9119 2 nmol ICV

canine MC4R (canine), sequence (Q0Z8I9 other isoform, or with tags, fused parts or gaps): as the sequence (A0A2Z6BEC9 1-332) above

SHU9119 (peptide) was tested, and the IC50, antagonist inhibition of calcium release in the presence of 20 nM NDP-MSH agonist (FLIPR) (canine MC4R (canine) [1]) was 2 nM, the IC50 (hMC3R [2]) was 0.188 nM and the IC50 (hMC4R [3]) was 0.0116 nM.
MTII (peptide) was tested, and the EC50, agonist stimulated calcium release (FLIPR, HEK293a/cMC4R/Gα15, Gα16 cells) (canine MC4R (canine) [1]) was 10 nM and the IC50 (canine MC4R (canine) [4]) was 0.877 nM.
MTII was tested, and the EC50 (cMC4R [5]) was 10 nM.
SHU9119 was tested, and the “Heat Produced, Average” value (Obese Beagle Dogs [6]; [13]) was 13 kcal/h, the “VO2, Average” value (Obese Beagle Dogs [6]; [13]) was 3.6 mL/min/kg and the “Heat Produced, % Change” value (Obese Beagle Dogs [6]; [14]) was −37* %. For the same compound, the “VO2, % Change” value (Obese Beagle Dogs [6]; [14]) was −38* %, the “24 hr Food Intake, Average” value (Obese Beagle Dogs [7]; ICV injection, SHU 9119 2 nmol) was 366 g and the “24 hr Food Intake, % Change” value (Obese Beagle Dogs [7]; [14]) was “+132* %”.
In the case of N=C(N)NCCC[C@@H]1NC(=O)[C@@H](Cc2ccc3ccccc3c2)NC(=O)[C@H](Cc2c[nH]cn2)NC(=O)[C@H](CCC(=O)O)NC(=O)CCSSC[C@@H](C(=O)N2CCC[C@H]2C(=O)N2CCC[C@H]2C(=O)N[C@@H](CCCCN)C(=O)N[C@@H](CC(=O)O)C(N)=O)NC(=O)CNC(=O)[C@H](Cc2c[nH]c3ccccc23)NC1=O [JKC363] (HELM PEPTIDE1{[O=C(CCS[*:3])[*:2]].E.H.[O=C([C@@H](Cc1ccc2ccccc2c1)N[*:1])[*:2]].R.W.G.C.P.P.K.D.[am]}$PEPTIDE1,PEPTIDE1,1:R3-8:R3$$$V2.0; C-terminus assumed), the IC50 (cMC4R [8]) is reported as 0.971 nM, the IC50 (hMC4R [9]) is reported as 1.31 nM and the IC50 (hMC3R [10]) is reported as 15.1 nM. The IC50 (hMC4R [11]) was 2.11 nM and the IC50 (hMC3R [12]) was 22.7 nM.
For JKC363 (peptide), the IC50 (canine MC4R (canine) [4]) was 1.27 nM and the IC50 (hMC3R [2]) was 22.8 nM.
“α-MSH (from UniProt P01189 138-150) (peptide)” was tested, and the EC50, agonist stimulated calcium release (FLIPR, HEK293a/cMC4R/Gα15, Gα16 cells) (canine MC4R (canine) [1]) was 55 nM, the cAMP, fold over negative control cells (canine MC4R (canine) [1]) was 10 fold and the concentration of cAMP in α-MSH treated cells (1.5×10^6 cells/ml) (canine MC4R (canine) [1]) was 13.8 pmol/mL.
For α-MSH, the EC50 (cMC4R [5]) was 55 nM, the “concentration of cAMP” value (canine MC4R; 30 minutes, most concentrated batch of cells (1.5×10^6 cells/ml)) was 13.82 pmol/mL and the “cAMP levels over background” value (canine MC4R; cells at each concentration (0.5, 1.0, 1.5×10^6 cells/ml)) was “significant increase”. For the same compound, the “difference in cAMP versus negative control cells” value (canine MC4R; most concentrated batch of cells) was “almost ten-fold”.
